From BindingDB's records for doi:10.1016/s0960-894x(98)00132-2 (Green Cross Research Laboratories, 1999)

Target: Chymotrypsinogen A (Bos taurus) (UniProt P00766)
Assay: Compound was evaluated for inhibitory activity against Bovine Chymotrypsinogen

SMILES	Ki [nM]
CC(C)(C)OC(=O)NC(CC(=O)O)C(=O)N1CCC[C@H]1C(=O)NC(Cc1ccccc1)C(=O)C(F)(F)C(=O)Nc1cccc(C(=O)O)c1 (stereo partly drawn) [3-(4-{[(S)-1-(2-tert-Butoxycarbonylamino-3-carboxy-propionyl)-pyrrolidine-2-carbonyl]-amino}-2,2-difluoro-3-oxo-5-phenyl-pentanoylamino)-benzoic acid]	> 100000
CC(C)(C)OC(=O)NC(CCC(=O)O)C(=O)N1CCC[C@H]1C(=O)NC(Cc1ccccc1)C(=O)C(F)(F)C(=O)Nc1cccc(CC(=O)O)c1 (stereo partly drawn) [5-{(S)-2-[1-Benzyl-3-(3-carboxymethyl-phenylcarbamoyl)-3,3-difluoro-2-oxo-propylcarbamoyl]-pyrrolidin-1-yl}-4-tert-butoxycarbonylamino-5-oxo-pentanoic acid]	3950
CC(C)(C)OC(=O)NC(CCC(=O)O)C(=O)N1CCC[C@H]1C(=O)NC(Cc1ccccc1)C(=O)C(F)(F)C(=O)Nc1cccc(S(N)(=O)=O)c1 (stereo partly drawn) [5-{(S)-2-[1-Benzyl-3,3-difluoro-2-oxo-3-(3-sulfamoyl-phenylcarbamoyl)-propylcarbamoyl]-pyrrolidin-1-yl}-4-tert-butoxycarbonylamino-5-oxo-pentanoic acid]	1030
CC(C)(C)OC(=O)NC(CCC(=O)O)C(=O)N1CCC[C@H]1C(=O)NC(Cc1ccccc1)C(=O)C(F)(F)C(=O)Nc1cc(C(=O)O)cs1 (stereo partly drawn) [5-(4-{[(S)-1-(2-tert-Butoxycarbonylamino-4-carboxy-butyryl)-pyrrolidine-2-carbonyl]-amino}-2,2-difluoro-3-oxo-5-phenyl-pentanoylamino)-thiophene-3-carboxylic acid]	> 100000
CC(C)(C)OC(=O)NC(CCC(=O)O)C(=O)N1CCC[C@H]1C(=O)NC(Cc1ccccc1)C(=O)C(F)(F)C(=O)Nc1cccc(C(=O)O)c1 (stereo partly drawn) [3-(4-{[(S)-1-(2-tert-Butoxycarbonylamino-4-carboxy-butyryl)-pyrrolidine-2-carbonyl]-amino}-2,2-difluoro-3-oxo-5-phenyl-pentanoylamino)-benzoic acid]	1300
CC(C)(C)OC(=O)NC(CCC(=O)O)C(=O)N1CCC[C@H]1C(=O)NC(Cc1ccccc1)C(=O)C(F)(F)C(=O)Nc1cccc(C(N)=O)c1 (stereo partly drawn) [5-{(S)-2-[1-Benzyl-3-(3-carbamoyl-phenylcarbamoyl)-3,3-difluoro-2-oxo-propylcarbamoyl]-pyrrolidin-1-yl}-4-tert-butoxycarbonylamino-5-oxo-pentanoic acid]	1220
